Where two headings read alike, the source gives them in different places.
How the values were obtained:
[1] = Surface tension of aqueous surfactant solutions, ring method (Krüss Tensiometer K100); assay type: physicochemical; conditions: 25°C, aqueous solution, value reached starting from ca. 70 mN/m for water (Figur 3)
Procedure: Die Herabsetzung der Grenzflächenspannung von Wasser durch Zugabe an Tensid ist ein wichtiges Maß für die Effizienz eines Tensids. Die Oberflächenspannung von wässrigen ChDS- und SDS- Lösungen wurde anhand der Ringmethode mit einem Krüss Tensiometer K100 vermessen. Figur 3 zeigt die gemessene Grenzflächenspannung bei einer Temperatur von 25°C in Abhängigkeit von der Konzentration.

[2] = Krafft temperature (solubility temperature of a 1 wt% aqueous solution) by turbidity measurement, with and without added salt; assay type: physicochemical
Text: Als Maß für die Löslichkeit und Salzempfindlichkeit wurden die Krafft-Punkte in Abwesenheit von Salzen sowie bei unterschiedlichen Salzkonzentrationen herangezogen.
Allgemein kann die Krafft-Temperatur eines Tensids als die Löslichkeitstemperatur einer 1 Gew. %igen Lösung definiert werden, da die CMC generell weit unterhalb dieser Konzentration liegt (R. G. Laughlin, The Aqueous Phase Behavior of Surfactants, Academic Press, San Diego, 1994, p. 108). Dementsprechend wurde zur Bestimmung der Krafft-Temperatur von ChDS eine 1 gew. - %ige Lösung eingewogen. Zur Untersuchung des Einflusses von Salzen auf den Krafft-Punkt wurden 1 gew% - igen Lösungen von ChDS verschiedene Mengen an Natriumchlorid (Merck, p.a.) bzw. Cholinchlorid (Sigma-Aldrich, min. 98%) zugesetzt und die zugehörige Löslichkeitstemperatur gemessen.
Präzise Löslichkeitstemperaturen wurden aus Trübungsmessungen gemäß des in S. Schrödle, R. Buchner, W. Kunz, Fluid Phase Equilib., 2004, 216, 175-182 beschriebenen Verfahrens erhalten. Hierzu wurden alle untersuchten Proben bis zum Auftreten eines Niederschlags abgekühlt und anschließend mit einer Rate von 5°C pro Stunde wieder aufgeheizt.
Die Salzempfindlichkeit wurde durch Messung der Krafft-Temperatur bei unterschiedlichen Salzkonzentrationen untersucht.

SK-MEL 28-Zellen = experiment: MTT assay (Mosmann) cytotoxicity on SK-MEL 28 cells; assay type: cell-based, human; conditions: 72 h at 37°C, at least 5 independent measurements, high values mean low toxicity
Text: (§1) Die Zytotoxizität und Hautverträglichkeit von ChDS im Vergleich zu anderen gängigen anionischen Tensiden wurden mittels in-vitro Tests an HeLa-Zellen (humane Gebärmutterhalskrebszellen) und SK-MHL 28 Zellen (humane Melanom-Zellen) getestet. Dieses etablierte in vitro Verfahren ist in N. Vlachy, D. Touraud, J. Heilmann, W. Kunz, Colloids and Surfaces B: Biointerfaces, 2009, 70, 278 - 280 beschrieben und bietet eine gute Alternative zu den in vivo Draize-Augenirritationstests.
(§2) Die Zellen wurden von der American Type Culture Collection (ATCC) zur Verfügung gestellt. Die Kultivierung der HeLa-Zellen erfolgte in Earle's minimum essential medium (MEM) mit 0.85 g/l Natriumhydrogencarbonat, zusätzlich versetzt mit fötalem Kälberserum (10%), L-Glutamin (2mM), nichtessentiellen Aminosäuren (1%), Amphotericin B ([…]) und Penicillin G/Streptomycin Sulfat (100u/ml). Die SK - MEL 28 - Zellen wurden in einer 1:1 Mischung aus Dulbecco's MEM mit 4.5 g/l Natriumhydrogencarbonat sowie LGlutamin und Pyrovat und HAM'S F-12 Medium mit 1.176 g/l Natriumhydrogencarbonat und stabilem Glutamin, versetzt mit 10% fötalem Kälberserum, kultiviert.
(§3) Die Inhibitionskonzentration an Testsubstanz, welche zu einer Reduktion an lebenden Zellen um 50% im Vergleich zu einer unbehandelten Kontrolle führt (IC 50), wurde via MTT-Assay nach Mosmann festgestellt.
(§4) Hierzu wurden in der ersten Spalte einer 96-Well-Platte je 15 µl an wässriger Testsubstanzlösung mit 135 µl Medium durchmischt. Je 75 µl dieser Mischung wurden abgenommen und in der zweiten Spalte mit 75 µl Medium verdünnt. Diese Prozedur wurde bis zur vollständigen Füllung der Platte von Spalte zu Spalte wiederholt. Anschließend wurden in jedem Well 11250 Zellen in 75 µl Medium angesät. Die so vorbereiteten Platten wurden 72 Stunden bei 37°C im Brutschrank aufbewahrt.
(§5) Danach wurden 15 µl MTT - Lösung zu jedem Well gegeben und für weitere 4 Stunden inkubiert. Im Anschluss wurde die überstehende Lösung abgetrennt und der reduzierte MTT-Bodensatz jeweils mit 150 µl 10%iger Natrumdodecylsulfat-Lösung versetzt. Nachdem die Platten über Nacht unter Lichtausschluss stehen gelassen wurden, wurde die Absorption der Lösungen bei 560 nm mittels einem TECAN Spectra Fluor Plus microplate reader bestimmt. Nach Mittelung an zwei Einzelmessungen konnte aus den sich ergebenden Dosis-Wirkungskurven der entsprechende IC 50 Wert errechnet werden. Angegebene Werte der Inhibitionskonzentration errechnen sich aus mindestens 5 unabhängigen Messungen.

HeLa-Zellen = experiment: MTT assay (Mosmann) cytotoxicity on HeLa cells; assay type: cell-based, human; conditions: 72 h at 37°C, at least 5 independent measurements, high values mean low toxicity
Text: as §1, §2, §3, §4, §5

[3] = Solubility in organic solvents; assay type: physicochemical; conditions: Chloroform, Aceton, Acetonitril or Dimethylsulfoxid
[4] = cited from earlier work; for TKr (Krafft-Temperatur): literature values of comparison substances, references (1)-(3); for Löslichkeitstemperatur in Wasser: water, literature or background statement
Ratten-Gliom-Zellen = conditions: rat glioma cells, cited from earlier work

CCCCCCCCCCCCOS(=O)(=O)O [ChDS, Cholindodecylsulfat]
Grenzflächenspannung von Wasser [1]: ca. 37 mN/m
TKr (Krafft-Temperatur) ([2]; 1 wt% aqueous solution, no salt, turbidity measurement): 0 °C
Anstieg der Krafft-Temperatur ([2]; NaCl:surfactant ratio of 1:1, 1 wt% solution (Figur 1, Figur 2)): ~7 °C
in Wasser löslich bis (Temperatur) ([2]; water, found by the applicant): < 0 °C
IC50 (SK-MEL 28-Zellen; Homo sapiens, SK-MEL-28, 72 h): 430 ± 20 µM
IC50 (HeLa-Zellen; Homo sapiens, HeLa, 72 h): 404 ± 4 µM
Löslichkeit in organischen Lösungsmitteln [3]: gut löslich

CCCCCCCCCCCC(=O)O [KC12, Kaliumlaurat]
TKr (Krafft-Temperatur) [4]: 10°C^(3)
IC50 (SK-MEL 28-Zellen; Homo sapiens, SK-MEL-28, 72 h): 400 ± 10 µM
IC50 (HeLa-Zellen; Homo sapiens, HeLa, 72 h): 234 ± 5 µM

C[N+](C)(C)CCO [Cholin, (2-Hydroxyethyl)trimethylammonium]
Toxizität geringer im Vergleich zu Tetramethylammonium (TMA), Faktor (Ratten-Gliom-Zellen; factor of lower toxicity versus TMA): 5,5
Toxizität geringer im Vergleich zu Tetrabutylammonium, -fach (Ratten-Gliom-Zellen; fold lower toxicity versus tetrabutylammonium): > 500

CCCCCCCCCCCCOS(=O)(=O)O [Tetramethylammoniumdodecylsulfat]
Löslichkeitstemperatur in Wasser [4]: < 0 °C

CCCCCCCCCCCCOS(=O)(=O)O [SDS, Natriumdodecylsulfat]
TKr (Krafft-Temperatur) [4]: 16°C^(1)
Löslichkeitstemperatur in Wasser [4]: 12-25 °C
Grenzflächenspannung von Wasser [1]: ca. 36 mN/m
IC50 (SK-MEL 28-Zellen): 320 ± 30 µM
IC50 (HeLa-Zellen): 270 ± 10 µM
Löslichkeit in organischen Lösungsmitteln [3]: nur geringe Löslichkeit

CCCCCCCCCCCCOS(=O)(=O)O [KDS, Kaliumdodecylsulfat]
TKr (Krafft-Temperatur) [4]: 40°C^(1)

CCCCCCCCCCCC(=O)O [ChCl2, Cholinlaurat]
TKr (Krafft-Temperatur) [4]: <0°C^(3)
IC50 (SK-MEL 28-Zellen): 360 ± 10 µM
IC50 (HeLa-Zellen): 305 ± 6 µM

CCCCCCCCCCCC(=O)O [NaCl2, Natriumlaurat]
TKr (Krafft-Temperatur) [4]: 25°C^(2)
IC50 (SK-MEL 28-Zellen): 420 ± 10 µM
IC50 (HeLa-Zellen): 230 ± 10 µM

Reference: patent publication EP2216326B1, “Biologically acceptable choline compounds and their use as tensides” (Universität Regensburg, priority 2009, dated 2010)
